Values of other authors in patent US20020156056A1, “Oral fast-dissolving compositions for dopamine agonists” (priority 1997, published 2002).

How the values were obtained:
[1] = in vivo

SMILES | Adverse effects of intranasal administration (intranasal) | Adverse findings in long-term studies of oral tablets (oral tablets, studies stopped after 7-10 days) | Adverse effects of sub-lingual tablets (sub-lingual tablets, prolonged use) | Share of the drug converted to dopamine in peripheral tissues [1] | Share of the drug that enters the brain [1]
CN1CCc2cccc3c2C1Cc1ccc(O)c(O)c1-3 (centres unmarked) [apomorphine, 5,6,6a,7-tetrahydro-6-methyl-4H-dibenzo[de,g]quinoline-10,11-diol] | transient nasal blockage, burning sensation and swollen nose and lips | unexplained rises in blood urea nitrogen | severe stomatitis on prolonged use with buccal mucosal ulceration in half the patients treated | – | –
N[C@@H](Cc1ccc(O)c(O)c1)C(=O)O [levodopa] | – | – | – | about 95% | less than 1%
